The test addresses human LPAR1 (Homo sapiens, UniProt Q92633). Briefly: In vitro functional assay of lysophosphatidic acid receptor 1 activity (calcium flux). It is filed as cell-based.
[1] abbreviates: B103 cells stably expressing human LPAR1, calcium flux (Fluo-4 NW) after lysophosphatidic acid (18:1) at EC80, 100 pM to 10 μM, read-out: LPAR1 IC50.

pIC50: −log10 of the molar value. Where two headings read alike, the source gives them in different places.

Chain of human LPAR1 (Q92633 whole entry): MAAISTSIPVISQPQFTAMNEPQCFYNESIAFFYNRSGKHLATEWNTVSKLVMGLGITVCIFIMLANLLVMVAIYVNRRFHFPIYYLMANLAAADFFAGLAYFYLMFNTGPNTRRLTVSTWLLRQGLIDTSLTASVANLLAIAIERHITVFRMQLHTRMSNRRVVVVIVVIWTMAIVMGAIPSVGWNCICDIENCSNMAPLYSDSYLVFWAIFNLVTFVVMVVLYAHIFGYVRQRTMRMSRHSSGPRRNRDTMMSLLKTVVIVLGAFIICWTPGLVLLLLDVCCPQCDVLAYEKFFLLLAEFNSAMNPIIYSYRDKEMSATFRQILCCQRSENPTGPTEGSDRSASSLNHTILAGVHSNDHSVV

As for `COc1ccc(NC(=O)N(c2ccccc2C(C)C)[C@@H]2C[C@@H]3CC[C@H]2N3C(C)=O)c(OC(F)F)n1` (racemic) [Example 59, rac-1-((1R,2R,4S)-7-acetyl-7-azabicyclo[2.2.1]heptan-2-yl)-3-(2-(difluoromethoxy)-6-methoxypyridin-3-yl)-1-(2-isopropylphenyl)urea], the negative logarithm of the IC50 (pIC50) (as a rule, the IC50 on a negative log10 scale, so that one unit is a factor of ten) under setting [1] is 6.00 to 7.00. Take `Cc1ccc(NC(=O)N(c2ccccc2C(C)C)[C@H]2C[C@H](CC(N)=O)C2)c(OC(F)F)n1` [Example 188]: the pIC50 under setting [1] was 6.00 to 7.00. The same measure, in the same setting: under `Cc1ccc(NC(=O)N(c2ccccc2C(C)C)[C@H]2C[C@@H](C(N)=O)C2)c(OC(F)F)n1` [Example 187] stands under 6.00. On to `CC(=O)N1CCC(N(C(=O)Nc2ccc(C)nc2OC(F)F)c2ccccc2C(F)F)CC1` [Example 34, 1-(1-acetylpiperidin-4-yl)-3-(2-(difluoromethoxy)-6-methylpyridin-3-yl)-1-(2-(difluoromethyl)phenyl)urea], for which the negative logarithm of the IC50 (pIC50) (LPAR1 IC50) was under 6.00. `Cc1ccc(NC(=O)N(c2ccccc2C(C)C)[C@H]2C[C@H](C#N)C2)c(OC(F)F)n1` [Example 25, 1-((1r,3r)-3-cyanocyclobutyl)-3-(2-(difluoromethoxy)-6-methylpyridin-3-yl)-1-(2-isopropylphenyl)urea]: under setting [1], the pIC50 was 6.00 to 7.00. Regarding `CC(=O)N1CCC(N(C(=O)Nc2ncc(Br)cc2OC(F)F)c2ccccc2C(C)C)CC1` [Example 129, 1-(1-acetylpiperidin-4-yl)-3-(5-bromo-3-(difluoromethoxy)pyridin-2-yl)-1-(2-isopropylphenyl)urea], for the setting “LPAR1 IC50”, the negative logarithm of the IC50 (pIC50) is 7.00 to 8.00. On the same count and under the same terms, with `CC(=O)N1CCC(N(C(=O)Nc2cnccn2)c2ccccc2C(C)C)CC1` [Example 130] the figure was under 6.00. As to `Cc1ccc(NC(=O)N(c2ccccc2C(C)C)[C@H]2CCC(=O)N(C)C2)c(OC(F)F)n1` [Example 6, (S)-3-(2-(difluoromethoxy)-6-methylpyridin-3-yl)-1-(2-isopropylphenyl)-1-(1-methyl-6-oxopiperidin-3-yl)urea], under setting [1], the pIC50 is 7.00 to 8.00.

In the case of `COc1ccc(NC(=O)N(c2ccccc2C(C)C)[C@@H]2[C@@H]3CC[C@H]2CN(C(C)=O)C3)c(OC(F)F)n1` [Example 56, 1-((1R,5S,8s)-3-acetyl-3-azabicyclo[3.2.1]octan-8-yl)-3-(2-(difluoromethoxy)-6-methoxypyridin-3-yl)-1-(2-isopropylphenyl)urea], the pIC50 (LPAR1 IC50) was 6.00 to 7.00. For `Cc1ccc(NC(=O)N(c2ccccc2C(C)C)C2CNC(=O)C2)c(OC(F)F)n1` (stereo not drawn) [Example 30, 3-(2-(difluoromethoxy)-6-methylpyridin-3-yl)-1-(2-isopropylphenyl)-1-(5-oxopyrrolidin-3-yl)urea], the pIC50 under setting [1] is 6.00 to 7.00. For the molecule `COc1ccc(NC(=O)N(c2ccccc2C(C)CO)[C@H]2CC[C@H](C(=O)O)CC2)c(OC(F)F)n1` (stereo partly drawn) [Example 282, (1r,4r)-4-(3-(2-(difluoromethoxy)-6-methoxypyridin-3-yl)-l-(2-(1-hydroxypropan-2-yl)phenyl)ureido)cyclohexane-1-carboxylic acid], the pIC50 under setting [1] is 6.00 to 7.00. As to `COc1ccc(NC(=O)N(c2ccccc2C(C)C)C2CCN(C(N)=O)CC2)c(OC(F)F)n1` [Example 65, 4-(3-(2-(difluoromethoxy)-6-methoxypyridin-3-yl)-1-(2-isopropylphenyl)ureido)piperidine-1-carboxamide], the negative logarithm of the IC50 (pIC50) (LPAR1 IC50) is 7.00 to 8.00. For `Cc1ccc(NC(=O)N(c2ccccc2C(C)C)[C@H]2CC[C@H](C(=O)O)CC2)c(OCCF)n1` [Example 338, (1r,4r)-4-(3-(2-(2-fluoroethoxy)-6-methylpyridin-3-yl)-1-(2-isopropylphenyl)ureido)cyclohexane-1-carboxylic acid], under setting [1], the pIC50 is 7.00 to 8.00. On to `COc1ccc(NC(=O)N(c2ccccc2C(C)C)[C@H]2CCC[C@@H](C(=O)O)C2)c(OC(F)F)n1` [Example 147], for which the pIC50 under setting [1] was over 8.00. Regarding `CC(=O)N1CC2(CC(N(C(=O)Nc3ncc(Cl)cc3OC(F)F)c3ccccc3C(C)C)C2)C1` [Example 124], the pIC50 under setting [1] is 6.00 to 7.00. The same measure, in the same setting: under `Cc1ccc(NC(=O)N(c2ccccc2C(C)C)[C@H]2CC[C@H](C(=O)O)CC2)c(OC(F)F)n1` [Example 155, trans-4-(3-(2-(difluoromethoxy)-6-methylpyridin-3-yl)-1-(2-isopropylphenyl)ureido)cyclohexane-1-carboxylic acid] stands 7.00 to 8.00. On to `COc1ccc(NC(=O)N(c2ccccc2C(C)C)[C@@H]2CCN(C(C)=O)C[C@@H]2F)c(OC(F)F)n1` [Example 49, 1-((3S,4R)-1-acetyl-3-fluoropiperidin-4-yl)-3-(2-(difluoromethoxy)-6-methoxypyridin-3-yl)-1-(2-isopropylphenyl)urea], for which the pIC50 (LPAR1 IC50) was 7.00 to 8.00. With `Cc1ccc(NC(=O)N(c2ccccc2C(C)C)C2CCN(C(=O)OC(C)(C)C)CC2)c(OC(F)F)n1` [Example 1, tert-butyl 4-(3-(2-(difluoromethoxy)-6-methylpyridin-3-yl)-1-(2-isopropylphenyl)ureido)piperidine-1-carboxylate], the pIC50 (LPAR1 IC50) is 6.00 to 7.00. As for `CC(C)c1ccccc1N(C(=O)Nc1cc(F)c(F)cc1OC(F)F)[C@H]1CC[C@H](C(=O)O)CC1` [Example 298, (1r,4r)-4-(3-(2-(difluoromethoxy)-4,5-difluorophenyl)-1-(2-isopropylphenyl)ureido)cyclohexane-1-carboxylic acid], under setting [1], the pIC50 was over 8.00. The same measure, in the same setting: under `Cc1ccc(NC(=O)N(c2ccccc2C(C)C)C2CN(CCC3(C(=O)O)CCC3)C2)c(OC(F)F)n1` [Example 174] stands 6.00 to 7.00; under `COCC(=O)N1CC(N(C(=O)Nc2ccc(C)nc2OC(F)F)c2ccccc2C(C)C)C1` [Example 82, 3-(2-(difluoromethoxy)-6-methylpyridin-3-yl)-1-(2-isopropylphenyl)-1-(1-(2-methoxyacetyl)azetidin-3-yl)urea], 7.00 to 8.00; under `COc1ccc(NC(=O)N(c2ccccc2C(C)C)[C@H]2C[C@@]3(C[C@@H]3C(=O)O)C2)c(OC(F)F)n1` [Example 149], 7.00 to 8.00.

Take `COc1ccc(NC(=O)N(c2ccccc2C(C)C)[C@H]2CC[C@H](C(=O)O)CC2)c(OC)n1` [Example 288, (1r,4r)-4-(3-(2,6-dimethoxypyridin-3-yl)-1-(2-isopropylphenyl)ureido)cyclohexane-1-carboxylic acid]: under setting [1], the negative logarithm of the IC50 (pIC50) was 7.00 to 8.00. Regarding `COc1ccc(NC(=O)N(c2ccccc2C(C)C)C2C3CC2CN(C(C)=O)C3)c(OC(F)F)n1` (stereo not drawn) [Example 53, 1-(3-acetyl-3-azabicyclo[3.1.1]heptan-6-yl)-3-(2-(difluoromethoxy)-6-methoxypyridin-3-yl)-1-(2-isopropylphenyl)urea], the pIC50 (LPAR1 IC50) is 6.00 to 7.00. On to `Cc1ccc(NC(=O)N(c2ccccc2C(C)C)[C@H]2C[C@H](OCc3ccccc3)C2)c(OC(F)F)n1` [Example 23, 1-((1r,3r)-3-(benzyloxy)cyclobutyl)-3-(2-(difluoromethoxy)-6-methylpyridin-3-yl)-1-(2-isopropylphenyl)urea], for which the pIC50 under setting [1] was 6.00 to 7.00. Consider `Cc1ccc(NC(=O)N(CC23CC(C(=O)O)(CO2)C3)c2ccccc2C(C)C)c(OC(F)F)n1` [Example 168], for which the pIC50 under setting [1] is 7.00 to 8.00. With `Cc1ccc(NC(=O)N(c2ccccc2C(C)C)[C@H]2C[C@@H](Cc3nnn[nH]3)C2)c(OC(F)F)n1` [Example 192], the pIC50 under setting [1] was 7.00 to 8.00.

These data come from patent US20250034110A1, “LPAR1 ANTAGONISTS AND USES THEREOF” (Pipeline Therapeutics, Inc., priority 2021, published 2025).
